Test results published in the NIST ThermoML archive (doi:10.1021/je501118w).
Several values for one entry are separate records, joined by “and”; a condition that tells them apart may be missing. Equal entries are not always repeated.

Settings: Liquid, Vibrating tube method

CCCC[n+]1ccn(C)c1.O=S(=O)([N-]S(=O)(=O)C(F)(F)F)C(F)(F)F
Settings | mass density
273.15 K, 100 kPa | 1460.67 kg/m3
278.15 K, 100 kPa | 1455.84 kg/m3
283.15 K, 100 kPa | 1451.04 kg/m3
288.15 K, 100 kPa | 1446.23 kg/m3
288.15 K, 10320 kPa | 1453.8 kg/m3
288.15 K, 15130 kPa | 1457.1 kg/m3
288.15 K, 20090 kPa | 1460.4 kg/m3
288.15 K, 24820 kPa | 1463.6 kg/m3
288.15 K, 25120 kPa | 1463.3 kg/m3
288.15 K, 30620 kPa | 1467.3 kg/m3
288.15 K, 39770 kPa | 1473 kg/m3
288.15 K, 49640 kPa | 1478.8 kg/m3
288.15 K, 50970 kPa | 1479.2 kg/m3
288.15 K, 76000 kPa | 1493.8 kg/m3
288.15 K, 100500 kPa | 1506 kg/m3
288.15 K, 124500 kPa | 1517.8 kg/m3
288.15 K, 150400 kPa | 1528.9 kg/m3
288.15 K, 151000 kPa | 1529.4 kg/m3
288.15 K, 175100 kPa | 1539.3 kg/m3
288.15 K, 199900 kPa | 1548.8 kg/m3
288.16 K, 99600 kPa | 1506 kg/m3
293.15 K, 100 kPa | 1441.43 kg/m3 and 1441.42 kg/m3
298.15 K, 100 kPa | 1436.64 kg/m3 and 1436.6 kg/m3
298.15 K, 9760 kPa | 1444.2 kg/m3
298.15 K, 15200 kPa | 1448.1 kg/m3
298.15 K, 24770 kPa | 1454.6 kg/m3
298.15 K, 24930 kPa | 1454.4 kg/m3
298.15 K, 39560 kPa | 1464.3 kg/m3
298.15 K, 50280 kPa | 1470.6 kg/m3
298.15 K, 100700 kPa | 1498.7 kg/m3
298.15 K, 124500 kPa | 1510.5 kg/m3
298.15 K, 150300 kPa | 1522.1 kg/m3
298.15 K, 174400 kPa | 1532.5 kg/m3
298.15 K, 200400 kPa | 1543.2 kg/m3 and 1542.9 kg/m3
298.15 K, 249600 kPa | 1561.5 kg/m3
298.16 K, 20120 kPa | 1451.5 kg/m3
298.16 K, 30400 kPa | 1458.4 kg/m3
298.16 K, 50110 kPa | 1470.9 kg/m3
298.16 K, 75200 kPa | 1485.4 kg/m3
298.16 K, 100200 kPa | 1498.6 kg/m3
298.16 K, 150100 kPa | 1522.3 kg/m3
298.16 K, 225500 kPa | 1553 kg/m3
303.15 K, 100 kPa | 1431.86 kg/m3
313.15 K, 100 kPa | 1422.34 kg/m3
323.15 K, 100 kPa | 1412.87 kg/m3 and 1412.85 kg/m3
323.15 K, 15150 kPa | 1424.4 kg/m3
323.15 K, 24310 kPa | 1431.5 kg/m3
323.15 K, 24670 kPa | 1431.2 kg/m3
323.15 K, 30100 kPa | 1435.1 kg/m3
323.15 K, 39780 kPa | 1441.8 kg/m3
323.15 K, 49910 kPa | 1448.4 kg/m3
323.15 K, 50470 kPa | 1449.4 kg/m3
323.15 K, 75400 kPa | 1463.9 kg/m3
323.15 K, 99600 kPa | 1478.1 kg/m3
323.15 K, 100500 kPa | 1478 kg/m3
323.15 K, 124700 kPa | 1490.3 kg/m3
323.15 K, 149600 kPa | 1502.1 kg/m3 and 1502.8 kg/m3
323.15 K, 174600 kPa | 1513 kg/m3
323.15 K, 200000 kPa | 1524.7 kg/m3
323.15 K, 225000 kPa | 1533.7 kg/m3
323.15 K, 251500 kPa | 1543 kg/m3
323.16 K, 10250 kPa | 1420.7 kg/m3
323.16 K, 20180 kPa | 1428.1 kg/m3
323.16 K, 201000 kPa | 1524.3 kg/m3
333.15 K, 100 kPa | 1403.48 kg/m3
343.15 K, 100 kPa | 1394.15 kg/m3
348.15 K, 10050 kPa | 1397.8 kg/m3
348.15 K, 15200 kPa | 1402 kg/m3
348.15 K, 20220 kPa | 1405.9 kg/m3
348.15 K, 24790 kPa | 1410.4 kg/m3
348.15 K, 24830 kPa | 1409.3 kg/m3
348.15 K, 30300 kPa | 1413.4 kg/m3
348.15 K, 39980 kPa | 1420.5 kg/m3
348.15 K, 49890 kPa | 1427.3 kg/m3
348.15 K, 50730 kPa | 1429.7 kg/m3
348.15 K, 75400 kPa | 1443.5 kg/m3
348.15 K, 100300 kPa | 1460.9 kg/m3
348.15 K, 100500 kPa | 1458.5 kg/m3
348.15 K, 125100 kPa | 1471.9 kg/m3
348.15 K, 150000 kPa | 1484.2 kg/m3
348.15 K, 150500 kPa | 1487.2 kg/m3
348.15 K, 174700 kPa | 1495.6 kg/m3
348.15 K, 199200 kPa | 1509.2 kg/m3
348.15 K, 200600 kPa | 1506.6 kg/m3
348.15 K, 225700 kPa | 1517 kg/m3
348.15 K, 250700 kPa | 1526.9 kg/m3
353.15 K, 100 kPa | 1384.88 kg/m3
363.15 K, 100 kPa | 1375.67 kg/m3

CCCCCC[n+]1ccn(C)c1.O=S(=O)([N-]S(=O)(=O)C(F)(F)F)C(F)(F)F
Settings | mass density
273.15 K, 101.33 kPa | 1395.63 kg/m3 and 1395.14 kg/m3 and 1395.28 kg/m3
278.15 K, 101.33 kPa | 1390.37 kg/m3 and 1390.93 kg/m3
283.15 K, 101.33 kPa | 1385.72 kg/m3 and 1385.89 kg/m3 and 1386.23 kg/m3
288.15 K, 101.33 kPa | 1381.16 kg/m3 and 1381.54 kg/m3
288.15 K, 14950 kPa | 1393.3 kg/m3
288.15 K, 20180 kPa | 1396.8 kg/m3
288.15 K, 25080 kPa | 1400 kg/m3
288.15 K, 30100 kPa | 1403.2 kg/m3
288.15 K, 40120 kPa | 1409.5 kg/m3
288.15 K, 49940 kPa | 1415.3 kg/m3
288.15 K, 75500 kPa | 1429.5 kg/m3
288.15 K, 124700 kPa | 1453.9 kg/m3
288.15 K, 174600 kPa | 1474.9 kg/m3
288.16 K, 100000 kPa | 1442.2 kg/m3
288.16 K, 150500 kPa | 1465 kg/m3
293.15 K, 101.33 kPa | 1376.86 kg/m3 [middle of 4 runs]
298.15 K, 101.33 kPa | 1372.17 kg/m3 [middle of 4 runs]
303.15 K, 101.33 kPa | 1367.48 kg/m3 and 1367.61 kg/m3
313.15 K, 101.33 kPa | 1358.37 kg/m3 and 1358.51 kg/m3 and 1358.44 kg/m3
323.15 K, 101.33 kPa | 1349.3 kg/m3 and 1349.43 kg/m3 and 1349.35 kg/m3
333.15 K, 101.33 kPa | 1340.33 kg/m3 and 1340.27 kg/m3 and 1340.4 kg/m3
343.15 K, 101.33 kPa | 1331.36 kg/m3 and 1331.29 kg/m3 and 1331.38 kg/m3
353.15 K, 101.33 kPa | 1322.46 kg/m3 and 1322.34 kg/m3 and 1322.43 kg/m3
363.15 K, 101.33 kPa | 1313.62 kg/m3 and 1313.44 kg/m3 and 1313.52 kg/m3
